# Tested on: serum cytokine/chemokine/growth factor/ligands of ALS patient
# Experiment: Serum Luminex, before and after NAC treatment
# Type: in vivo, human
# Description: (§1) Serum Luminex. Serum from patients were used to determine the levels of cytokine/chemokine/growth factor/ligands secretion using multiplex luminex assay. Scatter plot was prepared using the levels of cytokine/chemokine/growth factor/ligands in serum obtained at different dates from patients as compared to controls.
# Serum Luminex. Serum from patients were used to determine the levels of cytokine/chemokine/growth factor/ligands secretion using multiplex luminex assay.
# as §1
# [1] = H110 RS post NAC (second line, continues Table 138A)
# [2] = JC sera Apr. 5, 2020 (NAC infusion)
# [3] = JC sera Apr. 16, 2020 (NAC infusion)
# [4] = JC sera Apr. 23, 2020 (NAC infusion)
structure (smiles),measurement,setting,value
"CC(=O)N[C@@H](CS)C(=O)O [NAC, N-Acetyl-Cysteine]","IFN-g, ALS patient compared to healthy twin",41 plex after NAC,1.6
same,"IL-2, ALS patient compared to healthy twin",41 plex after NAC,0.9
same,"IL-4, ALS patient compared to healthy twin",41 plex after NAC,1.1
same,"IL-10, ALS patient compared to healthy twin",41 plex after NAC,0.95
same,"IL-12 p70, ALS patient compared to healthy twin",41 plex after NAC,1.3
same,"IL-13, ALS patient compared to healthy twin",41 plex after NAC,0.99
same,"TNF-a, ALS patient compared to healthy twin",41 plex after NAC,2.2
same,Franktalkine,"After NAC, Ave JC 4/5 to 6/24",34.8
same,GM-CSF,"After NAC, Ave JC 4/5 to 6/24",68.8
same,IL-4,"After NAC, Ave JC 4/5 to 6/24",12.8
same,IL-23,"After NAC, Ave JC 4/5 to 6/24",125.6
same,ITAC,"After NAC, Ave JC 4/5 to 6/24",13.34
same,MIP-1b,"After NAC, Ave JC 4/5 to 6/24",21.6
same,IFNg,Ave JC 4/5 to 6/24,7.25
same,IL-1b,Ave JC 4/5 to 6/24,0.82
same,IL-2,Ave JC 4/5 to 6/24,1.45
same,IL-6,Ave JC 4/5 to 6/24,1.9
same,IL-7,Ave JC 4/5 to 6/24,5.7
same,IL-8,Ave JC 4/5 to 6/24,4.4
same,IL-10,Ave JC 4/5 to 6/24,7.8
same,IL-12p70,Ave JC 4/5 to 6/24,2
same,IL-13,Ave JC 4/5 to 6/24,4.32
same,IL-17A,Ave JC 4/5 to 6/24,4
same,IL-21,Ave JC 4/5 to 6/24,0.7
same,MIP-1a,Ave JC 4/5 to 6/24,11.5
same,MIP-3a,Ave JC 4/5 to 6/24,8.1
same,TNFa,Ave JC 4/5 to 6/24,8.2 pg/mL
same,Franktalkine,Ave JC sera for NAC infusion,34.8 pg/mL
same,GM-CSF,Ave JC sera for NAC infusion,68.8 pg/mL
same,IFNg,Ave JC sera for NAC infusion,7.25 pg/mL
same,IL-1b,Ave JC sera for NAC infusion,0.82 pg/mL
same,IL-2,Ave JC sera for NAC infusion,1.45 pg/mL
same,IL-4,Ave JC sera for NAC infusion,12.8 pg/mL
same,IL-6,Ave JC sera for NAC infusion,1.9 pg/mL
same,IL-7,Ave JC sera for NAC infusion,5.7 pg/mL
same,IL-8,Ave JC sera for NAC infusion,4.4 pg/mL
same,IL-10,Ave JC sera for NAC infusion,7.8 pg/mL
same,IL-12p70,Ave JC sera for NAC infusion,2 pg/mL
same,IL-13,Ave JC sera for NAC infusion,4.32 pg/mL
same,IL-17A,Ave JC sera for NAC infusion,4 pg/mL
same,IL-21,Ave JC sera for NAC infusion,0.7 pg/mL
same,IL-23,Ave JC sera for NAC infusion,125.6 pg/mL
same,ITAC,Ave JC sera for NAC infusion,13.34 pg/mL
same,MIP-1a,Ave JC sera for NAC infusion,11.5 pg/mL
same,MIP-1b,Ave JC sera for NAC infusion,21.6 pg/mL
same,MIP-3a,Ave JC sera for NAC infusion,8.1 pg/mL
same,TNFa,Ave JC sera for NAC infusion,8.2 pg/mL
same,CMD,[1],1391 pg/mL
same,GRO,[1],2246 pg/mL
same,IFNg,[1],20.14 pg/mL
same,IL-1Ra,[1],247.51 pg/mL
same,IL-1a,[1],43.39 pg/mL
same,IL-1b,[1],6.64 pg/mL
same,IL-3,[1],7.88 pg/mL
same,IL-4,[1],53.81 pg/mL
same,IL-5,[1],38.12 pg/mL
same,IL-6,[1],23.49 pg/mL
same,IL-7,[1],21.7 pg/mL
same,IL-8,[1],16.64 pg/mL
same,IL-9,[1],16.88 pg/mL
same,IL-10,[1],97.95 pg/mL
same,IL-12p40,[1],82.26 pg/mL
same,IL-12p70,[1],13.65 pg/mL
same,IL-13,[1],33.66 pg/mL
same,IL-15,[1],23.97 pg/mL
same,IL-17a,[1],12.34 pg/mL
same,IP-10,[1],646.43 pg/mL
same,L-2,[1],14.54 pg/mL
same,MCP1,[1],846.7 pg/mL
same,MCP3,[1],16.88 pg/mL
same,MIP1a,[1],17.37 pg/mL
same,MIP1b,[1],34.07 pg/mL
same,PDGF-AB/BB,[1],23823 pg/mL
same,PDGFaa,[1],8654 pg/mL
same,Rantes,[1],9480 pg/mL
same,TNFa,[1],30.58 pg/mL
same,TNFb,[1],6.89 pg/mL
same,VEGF,[1],247.51 pg/mL
same,sCD40L,[1],3545 pg/mL
same,EGF,"H110 RS post NAC, Aug. 8, 2019",21.91 pg/mL
same,Eotaxin,"H110 RS post NAC, Aug. 8, 2019",116.77 pg/mL
same,FGF2,"H110 RS post NAC, Aug. 8, 2019",44.55 pg/mL
same,FIT3L,"H110 RS post NAC, Aug. 8, 2019",15.11 pg/mL
same,Fractalkine,"H110 RS post NAC, Aug. 8, 2019",61.83 pg/mL
same,GCSF,"H110 RS post NAC, Aug. 8, 2019",6131 pg/mL
same,GMCSF,"H110 RS post NAC, Aug. 8, 2019",26.68 pg/mL
same,IFNa2,"H110 RS post NAC, Aug. 8, 2019",31.31 pg/mL
same,TGFa,"H110 RS post NAC, Aug. 8, 2019",22.12 pg/mL
same,IL-2,"JC sera Apr. 5, 2020",0.14 pg/mL
same,IL-4,"JC sera Apr. 5, 2020",18.46 pg/mL
same,IL-5,"JC sera Apr. 5, 2020",2.64 pg/mL
same,IL-6,"JC sera Apr. 5, 2020",2.74 pg/mL
same,IL-7,"JC sera Apr. 5, 2020",5.61 pg/mL
same,IL-8,"JC sera Apr. 5, 2020",5.32 pg/mL
same,IL-21,"JC sera Apr. 5, 2020",0.82 pg/mL
same,IL-23,"JC sera Apr. 5, 2020",144.83 pg/mL
same,MIP-1a,"JC sera Apr. 5, 2020",11.35 pg/mL
same,MIP-1b,"JC sera Apr. 5, 2020",24.47 pg/mL
same,TNFa,"JC sera Apr. 5, 2020",9.39 pg/mL
same,Franktalkine,[2],39.54 pg/mL
same,GM-CSF,[2],91.74 pg/mL
same,IFNg,[2],11.6 pg/mL
same,IL-1b,[2],0.87 pg/mL
same,IL-10,[2],8.12 pg/mL
same,IL-12p70,[2],2.32 pg/mL
same,IL-13,[2],4.83 pg/mL
same,IL-17A,[2],6.07 pg/mL
same,ITAC,[2],18.73 pg/mL
same,MIP-3a,[2],11.35 pg/mL
same,IL-2,"JC sera Apr. 16, 2020",0.32 pg/mL
same,IL-4,"JC sera Apr. 16, 2020",11.22 pg/mL
same,IL-5,"JC sera Apr. 16, 2020",2.21 pg/mL
same,IL-7,"JC sera Apr. 16, 2020",4.9 pg/mL
same,IL-8,"JC sera Apr. 16, 2020",3.55 pg/mL
same,IL-21,"JC sera Apr. 16, 2020",0.62 pg/mL
same,IL-23,"JC sera Apr. 16, 2020",116.26 pg/mL
same,MIP-1a,"JC sera Apr. 16, 2020",10.8 pg/mL
same,MIP-1b,"JC sera Apr. 16, 2020",18.56 pg/mL
same,TNFa,"JC sera Apr. 16, 2020",7.45 pg/mL
same,Franktalkine,[3],33.33 pg/mL
same,GM-CSF,[3],54.8 pg/mL
same,IFNg,[3],7.11 pg/mL
same,IL-1b,[3],0.65 pg/mL
same,IL-10,[3],4.47 pg/mL
same,IL-12p70,[3],2.1 pg/mL
same,IL-13,[3],4.44 pg/mL
same,IL-17A,[3],3.15 pg/mL
same,ITAC,[3],11.26 pg/mL
same,MIP-3a,[3],5.58 pg/mL
same,IL-2,"JC sera Apr. 23, 2020",5.42 pg/mL
same,IL-4,"JC sera Apr. 23, 2020",15.94 pg/mL
same,IL-5,"JC sera Apr. 23, 2020",2.21 pg/mL
same,IL-7,"JC sera Apr. 23, 2020",6.39 pg/mL
same,IL-8,"JC sera Apr. 23, 2020",3.72 pg/mL
same,IL-21,"JC sera Apr. 23, 2020",0.68 pg/mL
same,IL-23,"JC sera Apr. 23, 2020",132.6 pg/mL
same,MIP-1a,"JC sera Apr. 23, 2020",11.24 pg/mL
same,MIP-1b,"JC sera Apr. 23, 2020",16.32 pg/mL
same,TNFa,"JC sera Apr. 23, 2020",7.45 pg/mL
same,Franktalkine,[4],34.75 pg/mL
same,GM-CSF,[4],84.17 pg/mL
same,IFNg,[4],6.15 pg/mL
same,IL-1b,[4],0.77 pg/mL
same,IL-10,[4],6 pg/mL
same,IL-12p70,[4],2 pg/mL
same,IL-13,[4],4.17 pg/mL
same,IL-17A,[4],2.78 pg/mL
same,ITAC,[4],10.71 pg/mL
same,MIP-3a,[4],6.78 pg/mL
same,IL-2,"JC sera Apr. 30, 2020",0.06 pg/mL
same,IL-4,"JC sera Apr. 30, 2020",14.43 pg/mL
